Assay results from US20240287123A1 (Victoria Link Limited, priority 2021, published 2024).
Read-outs that look alike come from different tables or passages of the source.

How the values were obtained:
primary human MDM = assay: Toxicity to MDM: LDH assay and light microscopy; type: cell-based
Procedure: Light microscopy was used to image MDMs on day 7 of infection. […] Colorimetric LDH assays were also performed on culture supernatants from these same cells on day 4 of infection to assess cell death.
At the end of each experiment, cells were imaged by light microscopy. After aspirating off media, cells were washed with PBS, and lysates were harvested in extraction buffer containing 0.1% Formic acid, 50% ACN, 40% MeOH, 10% H2O.
Drug toxicity was analyzed using an LDH assay kit according to manufacturer's instructions (Abcam #ab65393, Toronto, Canada). Briefly, supernatants from duplicate plates per treatment condition were added to a 96-well plate. Each supernatant was run in triplicate. Provided assay buffer was added to culture supernatants after mixing with a substrate solution that turns orange upon lactate exposure. After incubation for 30-45 min, colorimetric signal was quantified an OD of 450 nm. LDH was a positive control as well as cells lysed with 10% lysis buffer in media representing the “high control” to which % cytotoxicity was measured. The reference sample was either control uninfected cells treated with DMSO or negative control HIV-infected cells treated with DMSO. Culture media alone was used as a technical negative control. This background signal that was subtracted from all test wells.

EBV (Akata/Akata) = assay: EBV assay: viral DNA quantification in induced Akata cells; type: cell-based, Epstein-Barr virus; settings: for EC50: human gammaherpesvirus 4, Akata
Procedure: Akata cells were obtained from Louisiana State University, Baton Rouge, LA. The HCMV strain AD169 was obtained from the American Type Culture Collection (ATCC, Manassas, VA). Akata cells latently infected with EBV were obtained from Louisiana State University, Baton Rouge, LA.
Each experiment that evaluates the antiviral activity of compounds includes both positive and negative control compounds to ensure the performance of each assay. Concurrent assessment of cytotoxicity was also performed for each study in the same cell line and with the same compound exposure.
Assays for EBV were performed by reported methods.^37 Akata cells were induced to undergo a lytic infection with 50 μg/ml of a goat anti-human IgG antibody. Experimental compounds were diluted within plates. The cells were added and incubated for 72 h. Similar plates were initiated without virus induction/addition and used for measuring cytotoxicity by the addition of CTG. For all assays, the replication of the virus was assessed by the quantification of viral DNA. For EBV, primers 5′-[…]-3′ and 5′-CAG TTC CTC GCCTTAGGTTG-3 amplified a fragment corresponding to coordinates 96802-97234 in EBV genome (AJ507799). Compound concentrations sufficient to reduce genome copy number by 50% were calculated from experimental data as well as compound cytotoxicity.

CC(C)C(=O)OCC1=C[C@@H](O)[C@H](n2ccc(N)nc2=O)O1 [Compound 8, 3′-Deoxy-3′,4′-didehydro-5′-O-isobutyroyl-cytidine] was tested, and the “LDH activity in HIV-infected MDMs relative to DMSO controls” value (primary human MDM; 100 μM, day 4 of infection) was “nearly identical”, the “LDH activity relative to uninfected DMSO controls” value (primary human MDM; 100 μM, uninfected or HIV-infected MDMs, day 4 of infection) was “no significant difference” and the “toxicity to MDMs” value (primary human MDM; 100 uM, visual inspection by light microscopy and colorimetric LDH assays) was “non-toxic”. The “activity against EBV” value (EBV (Akata/Akata); cell-based assay, highest concentration tested in primary assays 50 μM) was “performed most favourably”, the EC50 (EBV (Akata/Akata); Akata/Akata, Table 1, read-out: EBV EC50) was 7.6 µM and the EC50 (EBV (Akata/Akata); read-out: Result for compound (EC50/UM), EBV Akata/Akata, assay order Primary) was 7.59 µM. It also gave an EC50 (EBV (Akata/Akata); read-out: EC50 against EBV) of 7.6 to 38.7 µM.
